This is an account of results in US20090098050A1, “CALCIUM BINDING PEPTIDES” (THE REGENTS OF THE UNVERSITY OF CALIFORNIA, priority 2005, published 2009).

Where two headings read alike, the source gives them in different places. No end group written: not given here.

Assay [1] concerns mineralized mouse bone marrow nodules. The experiment in a line: Binding to mineralized mouse bone marrow nodules (fluorescence microscopy). The assay is classed as cell-based. The conditions noted are these: 2.5 μM 5(6)-carboxyfluorescein-labeled peptide, three weeks. The method, then:
FIG. 2: Binding of 6DSS peptide to mineralized mouse bone marrow nodules (MBMNs). Mouse bone marrow cultures were grown to confluence, then treated for three weeks with 2.5 μM scrambled control peptide or 2.5 μM 6DSS. Cultures were imaged by fluorescence microscopy using a FITC filter set. A. Brightfield image of mineralized MBMNs from a culture treated with 6DSS. B. Fluorescence image of the field shown in (A). […] C. Brightfield image of mineralized MBMNs from a culture treated with scrambled control peptide. D. Fluorescence image of the field shown in (C), illustrating both the lack of binding of the control peptide to the MBMN's and the lack of autofluorescence within the sample. Mouse bone marrow cultures were grown to confluence in DMEM+10% FBS, then treated continuously for three weeks with either 2.5 μM 5(6)-carboxyfluorescein-labeled 6DSS or 2.5 μM 5(6)-carboxyfluorescein-labeled peptide #3-1 (scrambled control peptide, SEQ. ID NO. 24) in aMEM+10% FBS with 50 μg/mL ascorbic acid 4 mM β-glycerophosphate. Cultures were imaged by fluorescence microscopy using a FITC excitation/emission filter set, and both brightfield and fluorescence images were obtained.

The nature of assay [2]: Preferential binding to carious lesions in teeth (CLSM). The note with it: labeled peptide, settings optimized per sample. The arrangement: species or system human. The method, then: FIG. 9: Fluorescence micrographs showing specific binding of DSS peptides and variants to carious lesions in teeth. Adult human teeth were exposed to 12.5 uM 5(6)-carboxyfluorescein-labeled peptide without demineralization, washed extensively, and imaged by CLSM. Microscope and camera settings were optimized separately for each sample. […] White traces on the right side of each panel identify the position of the tooth surface, while arrows indicate the position of the stained lesion.
Sections of human teeth containing obvious carious lesions, which consist of demineralized enamel, were polished and exposed to 5(6)-carboxyfluorescein-labeled DSS peptides and variants using the protocol described in Example 2. The sections were washed extensively and imaged by CLSM using blue laser illumination (λ=488 nm) and a FITC emission filter, with microscope and camera settings adjusted for each sample to optimize the signal detected from each peptide. The images were examined to identify the relative levels of peptide binding in healthy versus carious tissue. […] Given their ability to remineralize at sites of enamel degradation (Example 6), they can also be used to initiate remineralization at sites of enamel degradation such as caries or injury sites without causing inappropriate nucleation on healthy tissue surfaces.

Assay [3] in a line: Binding of labeled 6DSS to sagitally sectioned human teeth (CLSM). The method, then:
(§1) FIG. 1: Binding affinities of DSS and DSS variant peptides for hydroxyapatite and tooth surfaces. A-C. Fluorescein-labeled peptides at concentrations ranging from 0-100 μM were incubated with 0.3 mg of hydroxyapatite nanocrystals (specific surface area=100 m^2/g) for ten minutes, followed by removal of the hydroxyapatite by centrifugation. The amount of peptide in the mixture before and after hydroxyapatite removal was determined by Abs480. Isotherms were plotted and fit to the Langmuir equation to extract values for KA, a constant reflecting the affinity of the peptide for the hydroxyapatite surface. D. Sagitally sectioned human teeth were incubated with 12.5 μM 5(6) carboxyfluorescein-labeled 6DSS peptide for ten minutes, followed by rinsing. Peptide binding to tooth surfaces was visualized by Confocal Laser Scanning Microscopy (CLSM) using blue laser illumination (λA=488 nm) and a FITC emission filter. Left side, light colored region: dentin. Right side, dark colored region: enamel.
Control samples were prepared without peptide. Samples were rinsed after treatment and imaged by confocal laser scanning microscopy (CLSM) using blue laser illumination (excitation wavelength (λ)=488 nm) and a FITC emission filter.

Assay [4] is described as follows: Tissue specific binding of DSS peptides and variants in human teeth (CLSM). The conditions noted are these: 12.5 μM labeled peptide; for Tissue binding pattern in healthy tooth section: nondemineralized teeth. On the procedure: FIG. 8: Fluorescence micrographs showing tissue specificity in the binding of DSS peptides and variants. Adult human teeth were exposed to 12.5 μM 5(6)-carboxyfluorescein-labeled peptide without demineralization, washed extensively, and imaged by CLSM. For each section, multiple scans were collected and assembled in an automated mode to generate panels of images representing an area of 13×13 mm, sufficient in most cases to encompass the whole section. The peptides used for each section are labeled beneath each panel, and within each panel the tooth is oriented with the root toward the top of the image and the crown toward the bottom. Tissue layers are labeled as follows: RTD=Root Tip Dentin; CPD=Circumpulpal Dentin; MD=Mantle Dentin; P=Pulp Cavity Wall; DEJ=Dentin-Enamel Junction; E=Enamel; BE=Basal Enamel; CE=Cortical Enamel; CL=Carious Lesion; PB=Periodontal Bone.
In order to investigate the tissue specificity of DSS peptide binding to tooth tissue, sections of human teeth were exposed to DSS peptides and variants, then imaged by CLSM as described in Example 2. The peptides utilized for these experiments were 8DSS, 8ASS, 8DAA, 8NAA, 4DSS, 4ESS, 4NSS, 4DTT, 4ETT, 4NTT, and 6DSS. Sagittal sections of human teeth extracted during normal clinical practice were polished and then incubated for ten minutes in a solution of the appropriate 5(6) carboxyfluorescein-labeled peptide (12.5 μM) containing 10 mM NaCl and 50 mM HEPES, pH 7.0. Control samples were prepared without peptide. Samples were washed extensively after treatment and imaged by CLSM using blue laser illumination (λ=488 nm) and a FITC emission filter, with identical camera and microscope settings for each sample. For each section, multiple scans were collected and assembled in an automated mode to generate panels of images representing an area of 13×13 mm, sufficient in most cases to encompass the whole section. […] Significant binding was also seen to the edges of the pulp cavity.

Assay [5] in a line: Binding of fluorescein-labeled peptides to hydroxyapatite nanocrystals (Langmuir isotherm). The note with it: fluorescein-labeled peptide 0-100 μM, 0.3 mg hydroxyapatite, ten minutes, Langmuir fit. On the procedure:
as §1
Four DSS peptides containing two (2DSS, SEQ ID NO:12), four (4DSS, SEQ ID NO:13), six (6DSS, SEQ ID NO:14), or eight(8DSS, SEQ ID NO:15) Asp-Ser-Ser (DSS) repeats were generated. Peptides were labeled with fluorescein, and various concentrations of the labeled peptides (0-100 μM) were mixed with a fixed amount (0.3 mg) of hydroxyapatite nanocrystals having a specific surface area of 100 m^2/g (Berkeley Advanced Biomaterials, Inc.). Samples were incubated for ten minutes, followed by removal of the hydroxyapatite by centrifugation. The amount of peptide in the mixture was measured both before and after hydroxyapatite removal by spectroscopic absorbance at 480 nm (the peak absorbance of the fluorescein label). The amount of peptide bound was calculated by comparing the ratio of the final (Af) and initial (Ai) absorbances to the initial concentration (P0) [Pbound=[…]]. Plots were generated illustrating the amount of peptide bound per m^2 of hydroxyapatite surface area versus concentration of unbound peptide at equilibrium. The resulting isotherms were fit to the Langmuir isotherm (x/m=(KANMaxCeq)/(1+KACeq)) (Calis 1995), which describes the binding activity of a molecule in terms of a combination of binding affinity (KA) and avidity (NMax). KA represents the affinity constant of the peptide for the hydroxyapatite surface. In this equation, x/m represents the molar amount of peptide bound per unit of hydroxyapatite surface area, NMax represents the maximum surface concentration (mol/m^2), and Ceq represents the molar concentration of unbound peptide at equilibrium. The Langmuir isotherm describes the binding of molecules to surfaces with the conditions that 1) all binding sites have the same affinity for the peptide, and 2) the peptide will form a monolayer on the surface but cannot accumulate to higher levels. The excellent fit of the Langmuir isotherm to the experimental data validates these conditions, and these affinity constants were used for comparisons between peptides.

Assay [6] concerns Streptococcus mutans strain UA159. The assay is classed as cell-based. From the text:
In order to determine the suitability of DSS peptides to serve as targeting moieties to deliver therapeutic compounds to mineralized surfaces, peptides were synthesized containing an N-terminal (DSS)4, (DSS)5, or (DSS)6 peptide, a triglycine (GGG) linker, and a 2c-4 antimicrobial peptide (SEQ ID NO:26) (J. He, unpublished). The sequences of these fusion proteins are set forth in SEQ ID NOs:27-29, respectively. The antimicrobial activity of these peptides against anaerobic planktonic bacteria was determined by a modification of a previously described assay (Qi 2005). Briefly, Streptococcus mutans strain UA159 cells were diluted to ˜1×10^5 cfu/mL in Todd-Hewitt (TH) broth medium and mixed with either suspended hydroxyapatite nanocrystals (Berkeley Advanced Biomaterials, Inc., 0.03% w/v) or, for control samples, an equivalent volume of deionized water. Aliquots were transferred into 96-well plates (Fisher). Serial dilutions of the peptides were then made and added to the bacteria. […] Nonetheless, some antimicrobial activity is retained by this peptide.

Consider “6DSS: peptide containing six Asp-Ser-Ser (DSS) repeats, SEQ ID NO:14 (DSSDSSDSSDSSDSSDSS; calcium binding peptide containing six DSS repeats, 6DSS, (DSS)-6)”, for which, in assay [1], the “Staining of mineralizing nodules” value is listed as “Strong staining”. Also, in assay [2], the “Specificity of binding to carious lesions versus surrounding healthy enamel” value is recorded as “highly specific binding to carious lesions” and the “Strength of staining of carious lesions” value was “exceptionally strong staining of carious lesions”. Besides, the “Fluorescent staining of tooth surface” value in assay [3] (12.5 μM 5(6) carboxyfluorescein-labeled peptide, ten minutes) is “Intense fluorescent staining”. Moreover, in assay [3] (12.5 μM labeled peptide, dentin versus enamel), the “Location of peptide binding in tooth section” value was “limited to the dentin”. In assay [4], the “Tissue binding pattern in healthy tooth section” value was “bound primarily to the mantle dentin”. Moreover, the “Level of binding (staining) to tooth surfaces” value in assay [4] (ten minutes, identical settings) is recorded as “greatest levels of staining”.

As for “8NAA: eight repeat peptide lacking hydroxyl groups at the second and third positions, SEQ. ID NO. 23 (NAANAANAANAANAANAANAANAA; variant DSS eight repeat peptide lacking hydroxyl group at seond and third positions, 8NAA)”, in assay [2], the “Specificity of binding to carious lesions versus surrounding healthy enamel” value was “highly specific binding to carious lesions”. Also, in assay [4], the “Binding to carious lesion present in the sample” value is listed as “did bind somewhat to a carious lesion” and the “Tissue binding pattern in healthy tooth section” value was “very little binding to any healthy tissue”. In addition, the “KA, affinity constant of the peptide for the hydroxyapatite surface” value in assay [5] is recorded as 20,000 M^−1.

For DSSDSSDSSDSSGGGRWRWRWF [4DSS-2c4], the MIC (in general, the least concentration at which growth counts as inhibited) in assay [6] (planktonic S. mutans, with 0.03% (w/v) hydroxyapatite, approximately 24 hours) is “unaffected”; in assay [6] (strain UA159, 24 h), 52.5 µM.

In assay [6] (strain UA159, 24 h), FHFHLHF [PL-135, reference compound] had an MIC of 21 µM.

In assay [6] (strain UA159, 24 h), LKRFLKWFKRF [b-34, reference compound] displayed an MIC of 5.6 µM.

For the substance RWRWRWF [2c-4, reference compound], the MIC in assay [6] (strain UA159, 24 h) amounted to 2 µM.

Consider “peptide #3-1: scrambled control peptide, SEQ. ID NO. 24 (LIKHILHRL; scrambled control peptide #3-1) [reference compound]”, for which the “Staining of mineralizing nodules” value in assay [1] is given as “No staining”.
